Data from US20240286179A1, “METHODS AND COMPOSITIONS FOR WASTE MANAGEMENT SYSTEMS” (priority 2023, published 2024).
Like-named read-outs stand apart in the source and are kept apart here.

Experiments:
[1] = system: methanogenesis
Procedure: A composting experiment was conducted in a 2-liter plastic soda bottle with 1 cup of organic food waste from kitchen waste with coffee grounds, 1 cup of leaves or grass clippings, 1 cup of shredded paper, and 4 cups of wet creek bed soil with 16 g of sodium chlorite (9.6 g/kg soil concentration) or 4 cups of wet creek bed soil without sodium chlorite. Gas produced in this experiment was collected using water displacement method. The %/Vol of methane was measured with a portable multi 4 gas detector with air gas sampling pump.
The LEL of CH4 is 5% of gas volume.

[2] = system: chlorite dismutase (Cld) enzymes; conditions: for balloon inflation: creek water
Procedure: A qualitative sampling device was created using: 300 mL plastic water bottle, 7-inch balloon and 3×⅛ in rubber band. Freshwater, wet creek bed soil (alluvial soil), and dry creek bank soil samples were collected from a stream habitat (Denton Creek in Coppell, Texas). Samples were placed in a sampling device with or without sodium chlorite (0 g, 16 g, or 32 g) to screen for the presence of Cld enzymes by observing inflation of balloon.

[3] = system: methanogenesis; remark: listed apart in the source
Procedure: An anoxic composting reactor was designed and constructed that comprised of a 2-liter plastic soda bottle attached to a 200 ml foil gas bag for quantitative gas analysis using gas chromatography. Composting experiments in anoxic composting reactor were conducted with 1 cup of organic food waste from kitchen waste with coffee grounds, 1 cup of leaves or grass clippings, 1 cup of shredded paper, and 4 cups of surface creek soil with 16 g of NaClO2 (9.6 g/kg soil concentration) or 4 cups of surface creek soil without NaClO2 or 4 cups of landfill cover soil with 16 g of NaClO2, or 4 cups or landfill cover soil without NaClO2.
Volumes of gas in the foil bags were estimated over a 3-week period. The gas samples were analyzed for fixed gases (hydrogen, oxygen, nitrogen, carbon monoxide, methane, and carbon dioxide) according to modified EPA Method 3C (single injection) using a gas chromatograph equipped with a thermal conductivity detector by ALS Environmental (Simi Valley, CA).

[4] = system: chlorite dismutase (Cld) enzymes; conditions: 16 g NaClO2 (30 g/kg)
Procedure: A qualitative reactor for detection of gas production was designed and constructed using: 300 mL plastic water bottle, 7-inch balloon and 3×⅛ in rubber band. The surface creek soil, deep creek soil, and landfill soil cover samples were placed in qualitative reactor with 16 g NaClO2 (30 g/kg soil concentration) and without any NaClO2 to screen for the presence of Cld enzymes by observing the inflation of balloon indicating biogas production.

[5] = system: chlorite dismutase (Cld) enzymes
Procedure: Using water displacement method, the oxygen production and yield were calculated from 4 gm of sodium chlorite in a 300 mL wet creek bed soil sample (526 gm) placed in 500 mL Erlenmeyer flask with rubber stopper connected with rubber tubing to an inverted 1 L graduated beaker full of water and placed in a rectangular plastic tub with water.

[6] = wet creek bed soil with 16 g NaClO2 (9.6 g/kg)

Substance: sodium chlorite [NaClO2]
- Methane % Day 12 ([1]; Volume %, 16 g NaClO2 (9.6 g/kg), Day 12): 0.75%
- Methane % Day 23 ([1]; Volume %, 16 g NaClO2 (9.6 g/kg), Day 23): 0%
- Methane % Day 34 ([1]; Volume %, 16 g NaClO2 (9.6 g/kg), Day 34): 0%
- time at which gas production plateaued [1, 6]: about 134 hours
- time at which gas production was noted after set-up [1, 6]: one
- time within which most of the measurable gas production occurred [1, 6]: ≤ 46 h
- time to rapid balloon inflation ([2]; alluvial creek bed soil, 16 g (0.053 g/ml) NaClO2): ≤ 6 h
- balloon inflation ([2]; 16 g (0.053 g/ml) NaClO2, after 2 days): no balloon inflation
- balloon inflation ([2]; 32 g (0.11 g/ml) NaClO2, after 2 days): no balloon inflation
- millimoles of methane generated, creek reactors without NaClO2 compared with creek reactors with NaClO2 ([3]; P-value=0.037, one-tailed paired t test): significantly higher
- volume of biogas produced ([3]; creek soil reactors with NaClO2, spread +/−81, P=0.009 vs without NaClO2): 328 mL
- CO2 levels in gas ([3]; landfill soil cover samples with or without NaClO2): lower levels of CO2
- CO2 levels in gas ([3]; surface creek soil, 16 g NaClO2 (9.6 g/kg)): increasing levels of CO2
- onset of gas production ([3]; surface creek soil, 16 g NaClO2 (9.6 g/kg), over a 60-hour period): immediate gas production
- time to rapid balloon inflation ([4]; deep creek soil): ≤ 6 h
- balloon inflation ([4]; landfill cover soil): did not show any balloon inflation
- time to rapid balloon inflation ([4]; surface creek soil): ≤ 6 h
- measurable gas production ([5]; 4 g NaClO2 in 526 g creek bed soil (7.6 g/kg), over a 65-hour period before plateauing): 145 mL
- measurable volume as % of theoretical oxygen yield ([5]; reduction of 4 grams NaClO2, calculated using the Ideal Gas Law): around 14%
